Test results from patent US7833805B2, “Selectively permeable membranes on porous substrates” (University of Cincinnati, priority 2004, dated 2010).

How the values were obtained:
gastric H/K ATPase [1] = biological target: T1, gastric H/K ATPase (Sus scrofa, UniProt P19156); assay: H+ transport (acidification) by hog gastric H/K ATPase vesicles reconstituted in phospholipid-coated PC filters; assay type: biochemical
T1 construct: Hog and stimulated rabbit gastric membrane vesicles are isolated according to methods known in the art; from tissue; host or cells: hog gastric membrane vesicles
T1 sequence (P19156 whole entry): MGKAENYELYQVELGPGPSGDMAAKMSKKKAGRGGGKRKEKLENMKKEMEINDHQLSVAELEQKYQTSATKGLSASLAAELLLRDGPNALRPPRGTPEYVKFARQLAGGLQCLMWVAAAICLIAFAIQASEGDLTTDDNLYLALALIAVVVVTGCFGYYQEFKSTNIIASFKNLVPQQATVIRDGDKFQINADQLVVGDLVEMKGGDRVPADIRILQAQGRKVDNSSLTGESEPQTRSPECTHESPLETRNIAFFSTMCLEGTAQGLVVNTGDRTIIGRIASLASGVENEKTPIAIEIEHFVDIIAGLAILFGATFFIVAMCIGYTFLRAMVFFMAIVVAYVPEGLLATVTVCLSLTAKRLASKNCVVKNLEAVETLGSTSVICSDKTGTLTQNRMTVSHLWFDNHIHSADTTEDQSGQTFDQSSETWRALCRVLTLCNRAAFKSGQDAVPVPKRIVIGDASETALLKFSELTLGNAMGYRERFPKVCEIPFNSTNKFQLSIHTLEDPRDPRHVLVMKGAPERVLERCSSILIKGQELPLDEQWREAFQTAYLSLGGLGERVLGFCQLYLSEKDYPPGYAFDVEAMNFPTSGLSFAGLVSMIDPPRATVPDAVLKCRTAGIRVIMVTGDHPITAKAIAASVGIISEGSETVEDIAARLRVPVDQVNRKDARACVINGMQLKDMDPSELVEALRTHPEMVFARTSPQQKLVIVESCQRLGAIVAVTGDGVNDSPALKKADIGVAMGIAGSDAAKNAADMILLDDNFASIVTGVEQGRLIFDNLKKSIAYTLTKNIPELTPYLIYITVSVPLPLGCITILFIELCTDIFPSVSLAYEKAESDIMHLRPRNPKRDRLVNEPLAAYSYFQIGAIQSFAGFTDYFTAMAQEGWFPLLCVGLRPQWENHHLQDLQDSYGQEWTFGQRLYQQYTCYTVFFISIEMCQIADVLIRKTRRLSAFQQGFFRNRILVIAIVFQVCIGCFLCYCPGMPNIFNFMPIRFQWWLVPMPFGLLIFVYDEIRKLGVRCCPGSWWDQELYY
T1 sequence (P18434 whole entry partner): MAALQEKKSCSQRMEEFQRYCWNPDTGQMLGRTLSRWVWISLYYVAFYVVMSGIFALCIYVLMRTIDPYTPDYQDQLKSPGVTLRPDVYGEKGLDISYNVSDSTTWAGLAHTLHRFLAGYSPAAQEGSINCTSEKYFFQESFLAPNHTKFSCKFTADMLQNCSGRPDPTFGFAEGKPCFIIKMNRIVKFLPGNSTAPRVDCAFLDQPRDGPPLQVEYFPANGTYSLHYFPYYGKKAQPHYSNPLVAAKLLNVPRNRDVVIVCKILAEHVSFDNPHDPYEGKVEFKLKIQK
Method: (§1) Hog and stimulated rabbit gastric membrane vesicles are isolated according to methods known in the art (Saccomani et al. Biochim. Biophys. Acta 465 (1977) 311-330, Cuppoletti, et al. J. Biol. Chem. 259 (1984) 14952-1 4959). A lipid bilayer is made on 0.4 μm polycarbonate filters (area=0.11 cm^2) in Multiscreen Caco-2 filter plates. […] of 40 mg/ml 3:1 POPS:POPE in n-decane is added to the filter (inner well) and after 30 min 100 mM K-gluconate solution is added to both sides (inner & outer wells). After 2 hrs, resistance is measured with a multimeter and Ag/AgCl electrodes to ensure that a bilayer had formed. The K-gluconate solution in the inner well is removed and 5 μl of hog or stimulated rabbit gastric vesicles are added to the inner well and left for 1 hr. Resistance is then measured in 100 mM K-gluconate, KCL, NaCl and NMDGCI. To measure H^+ transport, 200 μl 10 mM KCL is added to the outer well and 100 μl of 100 mM KCL, 10 mM HEPES pH 7.4 is added to the inner well. pH of the medium in the outer well (pHo) is measured using a PHR-146 pH Electrode (LAZAR Research Labs. Los Angeles, Calif.) and an Accumet pH meter 910 (Fisher, Pittsburgh, Pa.). When the pHo is almost constant, 5 μl 100 mM MGATP solution and 1 μl 10 mg/ml valinomycin are added to the inner well and pHo was followed. […] The change in pHo over time is recorded using AXOTAPE (Union City, Calif.).

gastric H/K ATPase [2] = biological target: T2, gastric H/K ATPase (Oryctolagus cuniculus, UniProt P27112); assay: H+ transport (acidification) by rabbit gastric H/K ATPase vesicles reconstituted in phospholipid-coated PC filters; assay type: biochemical; details: 100 μM SCH28080, rabbit gastric vesicles, P<0.02
T2 construct: Hog and stimulated rabbit gastric membrane vesicles are isolated according to methods known in the art; from tissue; host or cells: stimulated rabbit gastric membrane vesicles
T2 sequence (P27112 whole entry): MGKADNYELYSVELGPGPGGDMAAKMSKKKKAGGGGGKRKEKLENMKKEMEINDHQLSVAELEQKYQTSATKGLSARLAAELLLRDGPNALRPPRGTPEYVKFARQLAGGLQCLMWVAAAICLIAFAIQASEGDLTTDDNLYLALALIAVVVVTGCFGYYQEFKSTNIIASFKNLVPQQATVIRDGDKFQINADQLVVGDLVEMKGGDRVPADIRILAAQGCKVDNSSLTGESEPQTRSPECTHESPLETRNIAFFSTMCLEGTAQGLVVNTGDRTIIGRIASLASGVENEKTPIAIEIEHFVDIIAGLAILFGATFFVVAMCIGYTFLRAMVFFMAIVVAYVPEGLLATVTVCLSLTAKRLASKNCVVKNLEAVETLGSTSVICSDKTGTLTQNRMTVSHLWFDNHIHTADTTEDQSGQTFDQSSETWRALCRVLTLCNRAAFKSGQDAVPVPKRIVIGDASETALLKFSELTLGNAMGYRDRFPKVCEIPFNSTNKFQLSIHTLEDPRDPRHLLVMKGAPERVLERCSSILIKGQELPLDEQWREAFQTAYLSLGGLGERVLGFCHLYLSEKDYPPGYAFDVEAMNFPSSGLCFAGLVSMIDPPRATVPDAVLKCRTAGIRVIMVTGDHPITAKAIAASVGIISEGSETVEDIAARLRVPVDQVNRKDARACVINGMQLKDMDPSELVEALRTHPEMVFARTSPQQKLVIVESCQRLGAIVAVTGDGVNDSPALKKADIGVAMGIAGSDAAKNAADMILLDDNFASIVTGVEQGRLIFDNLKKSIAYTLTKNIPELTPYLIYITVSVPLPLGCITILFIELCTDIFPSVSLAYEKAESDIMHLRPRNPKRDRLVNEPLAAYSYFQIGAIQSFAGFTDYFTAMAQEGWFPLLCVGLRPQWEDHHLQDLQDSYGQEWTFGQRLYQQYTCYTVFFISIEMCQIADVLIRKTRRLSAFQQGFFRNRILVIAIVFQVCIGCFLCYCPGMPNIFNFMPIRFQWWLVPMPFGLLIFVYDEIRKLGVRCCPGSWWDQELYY
T2 sequence (P18597 whole entry partner): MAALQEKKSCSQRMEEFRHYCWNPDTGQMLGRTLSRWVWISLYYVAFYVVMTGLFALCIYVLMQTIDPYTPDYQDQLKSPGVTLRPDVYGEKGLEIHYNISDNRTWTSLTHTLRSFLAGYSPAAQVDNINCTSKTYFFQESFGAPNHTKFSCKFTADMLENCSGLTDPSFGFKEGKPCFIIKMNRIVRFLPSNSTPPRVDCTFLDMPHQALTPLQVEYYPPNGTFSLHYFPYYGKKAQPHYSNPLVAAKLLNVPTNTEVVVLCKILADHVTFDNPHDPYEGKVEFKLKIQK
Method: as §1

[3] = tested on: gastric proton pump H/K ATPase; assay: Example 1: ATP-dependent transport of acid across the bilayer with reconstituted gastric proton pump; assay type: biochemical; details: 100 μm SCH-28080
Text: This example illustrates an embodiment of bilayer formation, membrane transport reconstitution and testing for functionality. The bilayer is formed over pores of a polycarbonate substrate comprising naturally present pores or drilled holes. Millipore micro porous polycarbonates of various pore sizes (0.4, 3, 5, and 8 μm, e.g.) are commercially available, and a multi-well porous plastic plate with 10-100 μm Lenox-laser drilled holes (1/well) is available from Procter & Gamble Co. and is used for stable bilayer formation. Techniques for bilayer preparation are known by those of ordinary skill in the art. […] The bilayer is verified according to the gramicidin-D (a cation selective antibiotic) method wherein electrical resistance is monitored to observe the effect of gramicidin in reducing the resistance of the membrane. Current flow is measured by placing one electrode in the desired well and one in the surrounding liquid outside the well. […]
The verified bilayer is incubated with vesicles comprising H/K ATPase or Kv1.5 potassium channels. 3 μl of vesicles is added to each well which was determined to have a verified bilayer. Spontaneous fusion with the bilayer is allowed to proceed for 30 minutes to one hour, at which point H/K ATPase induced acidification or potassium ion currents across the bilayer membrane are measured. […] The current is measured as described earlier, after one hour. […]

Kv1.5 K+ channels [4] = biological target: T3, Kv1.5 K+ channels (Homo sapiens, UniProt P22460); assay: Kv1.5 K+ channel vesicles reconstituted in phospholipid-coated leached PLLA membranes, resistance measurement; assay type: biochemical; details: 1 μM compound B, KCl, n=8; PL alone 7.39, PL+Kv1.5 vesicles 0.55 MΩ
T3 construct: expressed in transfected cells; host or cells: Ltk- mouse fibroblast cells, stably transfected, dexamethasone-induced; plasma membrane vesicles
T3 sequence (P22460 whole entry): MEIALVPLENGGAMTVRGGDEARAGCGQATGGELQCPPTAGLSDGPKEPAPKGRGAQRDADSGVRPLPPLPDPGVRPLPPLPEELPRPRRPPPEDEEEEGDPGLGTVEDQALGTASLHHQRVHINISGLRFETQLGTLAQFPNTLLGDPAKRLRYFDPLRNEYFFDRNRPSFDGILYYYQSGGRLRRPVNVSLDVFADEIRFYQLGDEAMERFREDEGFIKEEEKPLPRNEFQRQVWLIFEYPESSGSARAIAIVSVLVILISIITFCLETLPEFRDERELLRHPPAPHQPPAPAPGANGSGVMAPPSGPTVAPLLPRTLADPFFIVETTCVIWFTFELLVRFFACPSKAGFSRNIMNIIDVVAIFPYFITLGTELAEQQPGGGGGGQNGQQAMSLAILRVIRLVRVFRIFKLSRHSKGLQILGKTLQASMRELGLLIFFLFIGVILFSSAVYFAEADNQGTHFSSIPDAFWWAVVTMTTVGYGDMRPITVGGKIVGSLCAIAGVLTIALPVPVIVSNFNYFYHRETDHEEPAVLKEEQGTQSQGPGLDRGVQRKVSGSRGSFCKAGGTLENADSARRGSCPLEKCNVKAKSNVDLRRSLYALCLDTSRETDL
Method: (§2) Bilayer formation is studied using PC, PETE and PLLA membranes (area=0.3 cm^2). Phospholipid bilayers are made by adding […] of 3:1 POPS:POPE (40 mg/ml) in n-decane to the membranes and waiting for 30 min. 100 mM KCL/10 mM HEPES (pH 7.4), is then added to both sides of the membrane (150 μl inside insert or well; 200 outside solution) and left for 30 minutes. A multimeter and Ag/AgCl reference electrodes are used to measure the resistance across the phospholipid-coated membranes. When gramicidin D is used, it is mixed with the lipids to a final concentration of 1 μg/ml. 10 μl of the lipid/gramicidin mixture is added to the membranes. After 30 minutes medium is added to both sides of the lipid-coated membrane (both inner and outer wells) and left for another 30 minutes. Resistances of the lipid-coated membranes are measured with two different media bathing the lipid bilayer on both sides: 100 mM KCl/10 mM HEPES (pH 7.4) and 100 mMNMDGCI/10 mM HEPES (pH 7.4). Reconstitution of gramicidin D is also done using the 96-well plastic plate with laser drilled holes and current is measured as described below.
Reconstitution of Kv1.5 K^+ channels is also carried out using lipid coated PLLA membranes (area=0.3 cm2) and resistance is measured as described in the previous section. Effects of compound B are also tested.

Kv1.5 K+ channels [5] = biological target: T3, Kv1.5 K+ channels; assay: Kv1.5 K+ channel vesicles reconstituted in phospholipid bilayers in 50 μm laser-drilled holes of a 96-well plastic plate, current measurement; assay type: biochemical
Method: The verified bilayer is incubated with vesicles comprising H/K ATPase or Kv1.5 potassium channels. 3 μl of vesicles is added to each well which was determined to have a verified bilayer. Spontaneous fusion with the bilayer is allowed to proceed for 30 minutes to one hour, at which point H/K ATPase induced acidification or potassium ion currents across the bilayer membrane are measured. A desired amount of […] is added to the well (for example, add 90 μl of 100 mM KCl for […], add 92.5 μl of 100 MM KCl for 750 nM). The well tray is placed back into the holder with the 100 mM KCl and current flow is measured as before. Add a desired amount of a suitable 10 μM inhibitor to achieve a final desired concentration with the final volume of 100 μl. When the gastric proton pump H/K ATPase is reconstituted on the bilayer over the pores, ATP-dependent transport of acid across the bilayer is observed that can be inhibited by 100 μm SCH-28080 (a specific inhibitor of the H/K ATPase). The current is measured as described earlier, after one hour. […] Ion currents are not present when the vesicles lack Kv1.5 or when Kv1.5 vesicles are boiled.
To investigate reconstitution of ion channels, plasma membrane vesicles containing Kv1.5, K^+ channels are prepared from an Ltk^− cell line (mouse fibroblast cells) stably overexpressing Kv1.5 K^+ channels under the control of a dexamethasone promoter as previously described (Matsuno, et al. Biochem. Biophys. Acta 1665 (2004) 184-190). Dexamethasone-specific induction of channel expression is totally specific for Kv1.5 channels. […] A 96-well plastic plate with laser drilled pores varying from 10-100 μm (1/well) is used. Well area is 0.3 cm^2. The phospholipid bilayer is made by adding 5 μl of 40 mg/ml 3:1 POPS:POPE in n-decane to each well. After 30 min 100 mM KCl/20 mM HEPES (pH 7.4) is added to both sides of the bilayer (both inner and outer wells). After a further 30 min, the solution from the inner well is removed and plasma membrane vesicles (5 μl) containing Kv1.5 K^+ channels are added to the lipid coated wells. After 30 min, 100 mM KCl/20 mM HEPES (pH 7.4) is returned to the well and currents across the bilayer are measured with an HS-2A headstage and Gene Clamp 500 amplifier (Axon Instruments, Foster City, Calif.) and filtered at 50 Hz. Voltages ranging from −80 to +70 mV are applied in 10-mV increments for 200 msec and electrical currents are recorded using pCLAMP version 5.5. When indicated, compound B, an inhibitor of Kv1.5 K^+ channels (see U.S. Pat. No. 6,174,908) is added.

[6] = Assay of lipid bilayer formation: resistance across phospholipid-coated porous membranes with gramicidin D
Method: as §2

[7] = Ion flux across the inventive membrane with gramicidin D as ionophore
[8] = Gramicidin D reconstituted in the phospholipid bilayer in 50 μm holes of the 96-well plastic plate, current measurement; details: KCl medium, +70 mV
Method: as §2, with “below. […]” for “below.”

Molecule: Cc1nc2c(OCc3ccccc3)cccn2c1CC#N [SCH28080]
- effect on H+ flux (rate of acidification) (gastric H/K ATPase [1]; 100 μM SCH28080, hog gastric vesicles, P<0.05): significantly reduces
- effect on acidification of outer well medium (representative experiment) (gastric H/K ATPase [1]; 100 μM SCH28080, hog vesicles, 5 mM MgATP, 100 μg/ml valinomycin): blocks acidification
- effect on H+ flux (rate of acidification) (gastric H/K ATPase [2]): significantly reduces
- effect on ATP-dependent transport of acid across the bilayer [3]: inhibited

Molecule: COc1ccc(CCN2C(=O)CSC2c2ccc(C)c(C)c2)cc1 (centres unmarked) [compound B, 2-(3,4-dimethyphenyl)-3-[2-(4-methoxyphenyl)ethyl]-thiazolidin4-one]
- resistance of PLLA membrane + phospholipids + Kv1.5 vesicles after inhibitor (Kv1.5 K+ channels [4]): 4.13±0.52 MΩ
- effect on Kv1.5 K+ channel currents (I-V curve) (Kv1.5 K+ channels [5]; 200 nM and 500 nM compound B): inhibited
- effect on Kv1.5 K+ current after addition of Kv1.5 vesicles (Kv1.5 K+ channels [5]; 1 μM compound B, P<0.001): inhibited
- effect on potassium ion currents of membrane fused with Kv1.5 vesicles (Example 1) (Kv1.5 K+ channels [5]; concentration not given): inhibited
- IC50 (Kv1.5 K+ channels [5]; sigmoidal dose-response plot, n=6, 100 mM KCl/20 mM HEPES pH 7.4, read-out: IC50, Kv1.5-mediated K+ currents expressed as ΔI at 70 mV as % maximum): 0.17 ± 0.04 µM

Molecule: gramicidin D
- resistance with gramicidin D, PETE membranes ([6]; KCl, n=5, PL alone 39.25 MΩ): 5.41±1.11 MΩ
- change of resistance with gramicidin D, PETE membranes ([6]; NMDGCl): did not change
- resistance after gramicidin D, PC filters with 3, 5 and 8 μm pores ([6]; presence of K+ (100 mM KCl), P<0.005): virtually zero
- resistance on addition of gramicidin D, leached PLLA membranes ([6]; presence of K+, n=6, PL alone 11.38 MΩ): 0.23±0.15 MΩ
- change of resistance on addition of gramicidin D, leached PLLA membranes ([6]; presence of NMDG+): unaffected
- reduction of resistance by gramicidin D, PC filters with 3, 5 and 8 μm pores ([6]; presence of NMDG+ (impermeant cation)): not
- flux across the inventive membrane [7]: 10^8 ions per second, per gramicidin D molecule
- current with gramicidin D [8]: about 30 μVA
